In patent US8686044B2, “Amide derivative, pest control agent containing the amide derivative, and use of the amide derivative” (Mitsui Chemicals Agro, Inc., priority 2008, dated 2014) one finds pest or weed control and death rate data, which are given here for 13 compounds.

Holding throughout (format): in vivo
For one experiment, the system named is Musca domestica. As to the kind of experiment: Pesticidal test against Musca domestica (petri dish dry film). The following applies: 24 h, concentration 100 ppm, female adults, examined after 1 day, 25° C., read-out: pesticidal rate. Summed up:
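Dry film from 1 ml acetone solution of compound at a predetermined concentration, air-dried in a 9 cm petri dish; female adult flies released and dish capped. Held at 25° C; living and dead counted after 1 day. Five insects per group, two replicates.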

The next experiment deals with Spodoptera litura. As to the kind of experiment: Pesticidal test against Spodoptera litura (cabbage leaf dip). Conditions: foliar, 144 h, concentration 1 ppm, 2-stage larvae, examined after 6 days, 25° C., read-out: pesticidal rate. Summed up: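 Cabbage leaf pieces dipped 30 seconds in compound solution at a predetermined concentration and air-dried, then offered to second-stage larvae, five per group in two replicates. Held at 25° C. Living and dead larvae counted after 6 days.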

The next experiment deals with Adoxophyes honmai. As to the kind of experiment: Pesticidal test against Adoxophyes honmai (artificial feed dip). Conditions: 144 h, concentration 1 ppm, 2-stage larvae, examined after 6 days, 25° C., read-out: pesticidal rate. Summed up:
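Thin artificial feed slices dipped 30 s in test solution at a predetermined concentration, air-dried, then offered to 2nd-stage larvae. Kept at 25° C; live and dead larvae counted after 6 days. Five larvae per group, two replicates.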

The test system of another experiment is Choristoneura magnanima. The experiment in a line: Pesticidal test against Choristoneura magnanima (artificial feed dip). Conditions: 144 h, 2-stage larvae, examined after 6 days, 25° C., read-out: pesticidal rate; for pest or weed control at 1 ppm: concentration 1 ppm; for pest or weed control at 10 ppm: concentration 10 ppm. Summed up: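 Thin artificial feed slices dipped 30 s in compound solution at a set concentration, air-dried, then offered to 2nd-stage larvae held at 25° C. Living and dead larvae counted after 6 days; five larvae per group, two replicates.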

In another experiment the test system is Helicoverpa armigera. The experiment in a line: Pesticidal test against Helicoverpa armigera (cabbage leaf disk dip). Conditions: foliar, 72 h, concentration 1 ppm, 2-stage larvae, examined after 3 days, 25° C., read-out: pesticidal rate. Summed up: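 Cabbage leaf disks were dipped for 30 s in test solution at a set concentration and air-dried. Second-instar larvae were placed one per hole and held at 25 °C, with live and dead counts taken after 3 days. Five larvae per group were tested in two replicates.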

The test system of another experiment is Plutella xylostella. As to the kind of experiment: Pesticidal test against Plutella xylostella (cabbage leaf dip). The following applies: foliar, 144 h, concentration 1 ppm, 2-stage larvae, examined after 6 days, 25° C., read-out: pesticidal rate. Summed up: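 Cabbage leaf pieces dipped 30 s in test solution at a predetermined concentration, air-dried, then offered to 2nd-instar larvae, five per group in duplicate. Held at 25° C; living and dead larvae counted after 6 days.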

The test system of a further experiment is Coptotermes formosanus. As to the kind of experiment: Pesticidal test against Coptotermes formosanus (treated filter paper). Conditions: 120 h, concentration 30 ppm, examined after 5 days of treatment, 28° C., read-out: pesticidal rate. As for the experimental part: Pesticidal Test against Coptotermes formosanus
20 μl of an acetone solution in which a test compound had been prepared at a predetermined concentration was added dropwise to the filter paper having a diameter of […] included in a polypropylene cup, and air-dried, and then 20 μl of water was added thereto. Coptotermes formosanus was released and the cup was capped. They were left to stand in a thermostatic chamber at 28° C., and the numbers of the living pests and the dead pests were examined after 5 days of treatment. The test was carried out with ten larvae per group in two replicates.

For another experiment, the system named is Laodelphax striatellus. The experiment in a line: Pesticidal test against Laodelphax striatellus (rice seedling spray). Conditions: 144 h, concentration 100 ppm, 3-stage larvae, examined after 6 days, 25° C., read-out: pesticidal rate. Summed up: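 Rice seedlings sprayed with 2.5 ml acetone solution of compound at a predetermined concentration, air-dried, then infested with third-stage Laodelphax striatellus larvae in capped water-containing tubes at 25 °C. Living and dead insects counted after 6 days; ten larvae per group, two replicates.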

Another experiment has as its system Rhipicephalus sanguineus. The experiment in a line: Insecticidal test for Rhipicephalus sanguineus (treated glass petri dish, Table A6). Conditions: adults of Rhipicephalus sanguineus, 18 hour exposure, examined after 48 hours, in single. The procedure:
Insecticidal Test for Rhipicephalus sanguineus
0.5 ml of a solution of acetone, the active ingredient, prepared to the prescribed dose was added dropwise into a glass petri dish with a diameter of 10 cm, and the acetone was evaporated at room temperature. About 10 adults of Rhipicephalus sanguineus per dish were added, and the dish was covered by another glass petri dish that was treated with the active ingredient in the same manner described above. After 18 hour exposure to the test substance, the adults were transferred into a glass petri dish that was not treated with the active ingredient. After 48 hours of the exposure, the conditions of the adults were examined and classified into “alive” and “dead (including a moribund condition)” to determine the death rate (in single).
As the comparative compounds, said Compounds (B), (C), and (D), and the following Compound (F) disclosed in WO2009/080203, and fipronil were used.

Another experiment deals with Blattella germanica. The experiment in a line: Pesticidal test against Blattella germanica (petri dish dry film). Conditions: 24 h, concentration 100 ppm, female adults, examined after 1 day, 25° C., read-out: pesticidal rate. Summed up:
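Acetone solution of test compound at a predetermined concentration dried as a film in a 9 cm petri dish; female adult cockroaches released onto it and kept at 25° C. Living and dead counted after 1 day; five insects per group, two replicates.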

With `O=C(Nc1cccc(C(=O)Nc2c(Br)cc(C(F)(C(F)(F)F)C(F)(F)C(F)(F)F)cc2C(F)(F)F)c1F)c1ccccc1` (stereo not shown) [6-1652], the pest or weed control at 100 ppm in the experiment with Musca domestica and in the experiment on Laodelphax striatellus was not below 70% throughout. Further, the pest or weed control at 1 ppm in the experiment with Spodoptera litura, in the experiment on Adoxophyes honmai, with Choristoneura magnanima, in the experiment with Helicoverpa armigera and in the experiment with Plutella xylostella was not below 70% each time. For the same compound, the pest or weed control at 30 ppm in the experiment on Coptotermes formosanus is not below 70%.
As to `O=C(Nc1c(I)cc(C(F)(C(F)(F)F)C(F)(F)F)cc1C(F)(F)F)c1cccc(NC(=O)c2cccnc2Cl)c1` [6-460, 2-chloro-N-(3-(2-iodo-4-(perfluoropropan-2-yl)-6-(trifluoromethyl)phenylcarbamoyl)phenyl)nicotinamide], the pest or weed control at 100 ppm with Musca domestica and in the experiment on Laodelphax striatellus was not below 70% in each case. For the same compound, the pest or weed control at 1 ppm in the experiment with Spodoptera litura, in the experiment on Adoxophyes honmai, in the experiment on Helicoverpa armigera and with Plutella xylostella was not below 70% each time. The pest or weed control at 10 ppm in the experiment with Choristoneura magnanima is not below 70%. The pest or weed control at 30 ppm in the experiment on Coptotermes formosanus is not below 70%.
Turning to `CCc1cc(C(F)(C(F)(F)F)C(F)(F)F)cc(C)c1NC(=O)c1cccc(NC(=O)C2CC2)c1` [compound (F)], the death rate in the experiment with Rhipicephalus sanguineus (0.673 mg/m^2), in the experiment with Rhipicephalus sanguineus (2.69 mg/m^2) and in the experiment on Rhipicephalus sanguineus (10.8 mg/m^2) was 0.0% each time.
For `CN(C(=O)c1ccccc1)c1cccc(C(=O)Nc2c(I)cc(C(F)(C(F)(F)F)C(F)(F)F)cc2C(F)(F)F)c1F` [7-1730], the pest or weed control at 100 ppm with Musca domestica and with Laodelphax striatellus was not below 70% each time. Moreover, the pest or weed control at 1 ppm with Spodoptera litura, with Adoxophyes honmai, with Choristoneura magnanima, in the experiment on Helicoverpa armigera and in the experiment with Plutella xylostella was not below 70% in each case. For the same compound, the pest or weed control at 30 ppm with Coptotermes formosanus is not below 70%.
Take `O=C(Nc1cccc(C(=O)Nc2c(I)cc(C(F)(C(F)(F)F)C(F)(F)F)cc2I)c1F)c1ccccc1` [6-1260, 3-benzamide-N-(2,6-diiodo-4-(perfluoropropan-2-yl)phenyl)-2-fluorobenzamide]: the pest or weed control at 100 ppm in the experiment on Musca domestica and in the experiment on Laodelphax striatellus was not below 70% throughout. Besides, the pest or weed control at 1 ppm with Spodoptera litura, with Adoxophyes honmai, in the experiment with Choristoneura magnanima, in the experiment with Helicoverpa armigera and with Plutella xylostella was not below 70% each time. Further, the pest or weed control at 30 ppm in the experiment on Coptotermes formosanus is not below 70%.
As to `N#Cc1cccc(C(=O)Nc2cccc(C(=O)Nc3c(I)cc(C(F)(C(F)(F)F)C(F)(F)F)cc3C(F)(F)F)c2F)c1` [6-1750], the pest or weed control at 100 ppm with Musca domestica, with Blattella germanica and in the experiment on Laodelphax striatellus was not below 70% throughout. Besides, the pest or weed control at 1 ppm with Spodoptera litura, in the experiment with Adoxophyes honmai, in the experiment on Choristoneura magnanima, with Helicoverpa armigera and with Plutella xylostella was not below 70% throughout.
Turning to `CN(C(=O)c1cccc(C#N)c1)c1cccc(C(=O)Nc2c(I)cc(C(F)(C(F)(F)F)C(F)(F)F)cc2I)c1F` [7-1280], the pest or weed control at 100 ppm with Musca domestica, with Blattella germanica and with Laodelphax striatellus was not below 70% throughout. The pest or weed control at 1 ppm with Spodoptera litura, in the experiment with Adoxophyes honmai, with Choristoneura magnanima, in the experiment with Helicoverpa armigera and in the experiment with Plutella xylostella was not below 70% throughout.
Regarding `CN(C(=O)c1ccccc1)c1cccc(C(=O)Nc2c(Br)cc(C(F)(C(F)(F)F)C(F)(F)F)cc2C(F)(F)F)c1` [7-268], the pest or weed control at 100 ppm with Musca domestica, in the experiment on Blattella germanica and in the experiment on Laodelphax striatellus was not below 70% each time. Besides, the pest or weed control at 1 ppm in the experiment on Spodoptera litura and in the experiment with Plutella xylostella was not below 70% each time. For the same compound, the pest or weed control at 30 ppm with Coptotermes formosanus was not below 70%.
Take `N#Cc1cccc(C(=O)Nc2cccc(C(=O)Nc3c(I)cc(C(F)(C(F)(F)F)C(F)(F)C(F)(F)F)cc3I)c2F)c1` (stereo not shown) [6-1358]: the pest or weed control at 100 ppm with Musca domestica, with Blattella germanica and in the experiment on Laodelphax striatellus was not below 70% each time. Moreover, the pest or weed control at 1 ppm in the experiment on Spodoptera litura, with Adoxophyes honmai, in the experiment with Choristoneura magnanima, in the experiment with Helicoverpa armigera and in the experiment with Plutella xylostella was not below 70% in each case.
Regarding `O=C(Nc1c(Br)cc(C(F)(C(F)(F)F)C(F)(F)C(F)(F)F)cc1C(F)(F)F)c1cccc(NC(=O)c2cccnc2Cl)c1` (stereo not shown) [6-382], the pest or weed control at 100 ppm in the experiment with Musca domestica, with Blattella germanica and in the experiment with Laodelphax striatellus was not below 70% throughout. For the same compound, the pest or weed control at 1 ppm in the experiment with Spodoptera litura, in the experiment on Adoxophyes honmai, in the experiment on Helicoverpa armigera and in the experiment with Plutella xylostella was not below 70% throughout. Besides, the pest or weed control at 10 ppm with Choristoneura magnanima was not below 70%.
Regarding `O=C(Nc1cccc(C(=O)Nc2c(I)cc(C(F)(C(F)(F)F)C(F)(F)C(F)(F)F)cc2C(F)(F)F)c1F)c1ccc(F)cc1` (stereo not shown) [6-1811], the pest or weed control at 100 ppm in the experiment on Musca domestica, with Blattella germanica and in the experiment with Laodelphax striatellus was not below 70% in each case. For the same compound, the pest or weed control at 1 ppm in the experiment with Spodoptera litura, with Adoxophyes honmai, in the experiment on Choristoneura magnanima, with Helicoverpa armigera and with Plutella xylostella was not below 70% throughout.
With `O=C(Nc1c(Br)cc(C(F)(C(F)(F)F)C(F)(F)F)cc1C(F)(F)F)c1cccc(NC(=O)c2c(F)cccc2F)c1F` [6-1596], the pest or weed control at 100 ppm in the experiment with Musca domestica, with Blattella germanica and with Laodelphax striatellus was not below 70% in each case. In addition, the pest or weed control at 1 ppm in the experiment with Spodoptera litura, in the experiment with Adoxophyes honmai, with Choristoneura magnanima, with Helicoverpa armigera and with Plutella xylostella was not below 70% in each case.
On to `CN(C(=O)c1cccc(F)c1)c1cccc(C(=O)Nc2c(Br)cc(C(F)(C(F)(F)F)C(F)(F)F)cc2Br)c1F` [7-1106], for which the pest or weed control at 100 ppm in the experiment on Musca domestica, in the experiment on Blattella germanica and with Laodelphax striatellus was not below 70% in each case. In addition, the pest or weed control at 1 ppm with Spodoptera litura, with Adoxophyes honmai, in the experiment with Choristoneura magnanima, with Helicoverpa armigera and in the experiment on Plutella xylostella was not below 70% in each case.
